{
  "source": "patent US11813275B2",
  "about": "“Pharmaceutical composition, methods for treating and uses thereof” (Boehringer Ingelheim International GmbH, priority 2013, dated 2023)",
  "key": {"[1]": {"system": "aortic wall", "assay": "Aortic wall thickness and collagen content by sirius red staining", "format": "in vivo, Wistar rats", "conditions": "STZ diabetic rats", "experimental": "Aortic wall thickness and collagen content were also measured microscopically after sirius red staining. Aortic segments were fixed in parafomaldehyde (4%) and paraffin-embedded. Sirius red staining for vascular fibrosis was performed with paraffin-embedded samples of aortic tissue upon de-paraffination. Afterwards the nuclei were prestained with hemalum. Then samples were stained for 1 hour in 0.1% with Sirius red solution containing saturated picric acid (1.2%). Finally, tissue samples were dehydrated with 70%, 96% and 100% isopropanol and coverslipped with a solution of polymers in xylene. 60-70 measurements were made per sample, n=6-7 animals/groups.\nFIGS. 16A and 16B: Microscopic determination of aortic wall thickness and collagen content by sirius red staining of aortic paraffinated sections. Quantification (FIG. 16A) and representative microscope images (FIG. 16B)."}, "[2]": {"system": "ALDH-2", "assay": "Liver ALDH-2 activity", "format": "in vivo, Wistar rats", "conditions": "STZ diabetic rats, 7 weeks of treatment", "experimental": "(§1) Type I diabetes in Wistar rats (8 weeks old, 250-300 g) are induced by a single i.v. injection of STZ (60 mg/kg). The blood glucose level is measured 3 days after STZ injection (to test whether diabetes was induced) and on the day of sacrifice. One week after injection empagliflozin (SGLT2-i) was administered with drinking water for additional 7 weeks (10 and 30 mg/kg/d p.o.)."}, "[3]": {"system": "isolated aortic rings", "assay": "Isometric tension recordings of isolated aortic rings (vasorelaxation)", "format": "in vivo, Wistar rats", "experimental": "as §1\nFIG. 2: A: Endothelial dependant vasorelaxation. […] B: Endothelial independent vasorelaxation obtain with glyceryl trinitrate (GTN) a NO donor."}, "[4]": {"system": "STZ-induced diabetes mellitus (Type I) in rat", "assay": "Blood glucose and weight gain in STZ-induced type I diabetic rats", "format": "in vivo, Wistar rats", "conditions": "10 and 30 mg/kg/d p.o. in drinking water for 7 weeks", "experimental": "as §1"}, "[5]": {"assay": "Serum levels of insulin and interferon-gamma in STZ diabetic rats", "format": "in vivo, Wistar rats", "conditions": "7 weeks of treatment", "experimental": "as §1"}, "[6]": {"system": "NADPH oxidase", "assay": "NADPH oxidase activity in cardiac tissue", "format": "in vivo, Wistar rats", "conditions": "STZ diabetic rats, 7 weeks of treatment", "experimental": "as §1"}, "[7]": {"system": "leukocyte-derived reactive oxygen species (ROS) in blood", "assay": "PDBu/zymosan A-stimulated chemiluminescence, oxidative burst in blood", "format": "in vivo, Wistar rats", "conditions": "PDBu or zymosan A stimulation; STZ diabetic rats, 7 weeks, low (10 mg/kg) or high (30 mg/kg) dose", "experimental": "as §1\nFIGS. 3-9: Quantification of reactive oxygen species of (ROS) from leukocyte upon stimulation with zymosan A (ZymA). After 7 weeks of treatment, ROS production in blood is reduced either with the low or high dose of empagliflozin to level close to none diabetic animal."}, "[8]": {"system": "superoxide formation in aortic vessels", "assay": "DHE staining of aortic cryosections (vascular superoxide formation)", "format": "in vivo, Wistar rats", "conditions": "STZ diabetic rats, 7 weeks of treatment", "experimental": "as §1"}, "[9]": {"system": "patients with T1D", "assay": "Blood pressure, arterial stiffness, HRV and adrenergic mediators in normotensive T1D patients under clamped euglycemia and hyperglycemia", "format": "in vivo, human", "experimental": "Blood pressure, arterial stiffness, heart rate variability (HRV) and circulating adrenergic mediators were measured during clamped euglycemia and hyperglycemia in 40 normotensive patients with T1D. Studies were repeated after 8 weeks of empagliflozin (25 mg daily).\nAugmentation index (Alx) for the radial and carotid arteries as well as a derived aortic Alx and carotid, radial and femoral pulse wave velocities (PWV) are measured for assessment of arterial stiffness using a SphygmoCor® System (AtCor Medical Inc., Itasca, Ill.)."}},
  "note": "“Also recorded” adds a separate entry of the source.",
  "data": [
    {"smiles": "OC[C@H]1O[C@@H](c2ccc(Cl)c(Cc3ccc(O[C@H]4CCOC4)cc3)c2)[C@H](O)[C@@H](O)[C@@H]1O", "note": "[empagliflozin, 1-chloro-4-(β-D-glucopyranos-1-yl)-2-[4-((S)-tetrahydrofuran-3-yloxy)-benzyl]-benzene]", "values": [
      {"measurement": "aortic collagen content", "setting": "[1]", "result": "normalized"},
      {"measurement": "aortic wall thickness", "setting": "[1]", "result": "normalized"},
      {"measurement": "ALDH-2 activity (liver)", "setting": "[2]", "result": "partly restored"},
      {"measurement": "endothelial independent vasorelaxation with GTN: effect on smooth muscle cells", "setting": "[3]; isolated aortic rings after 7 weeks of treatment, glyceryl trinitrate as NO donor", "result": "absence of deleterious effect"},
      {"measurement": "endothelial function (endothelial dependent vasorelaxation)", "setting": "[3]; isolated aortic rings of STZ diabetic rats after 7 weeks of treatment", "result": "normalization of endothelial function; also recorded: improvement of endothelial function"},
      {"measurement": "blood glucose levels", "setting": "[4]", "result": "distinct reduction"},
      {"measurement": "insulin level", "setting": "[5]; STZ diabetic rats", "result": "restore insulin level"},
      {"measurement": "interferon γ (marker of inflammation)", "setting": "[5]; elevation in STZ diabetic rats", "result": "highly diminished or suppressed"},
      {"measurement": "NADPH oxidase activity in the cardiac tissue", "setting": "[6]", "result": "diminished"},
      {"measurement": "oxidative stress in blood / ROS production from leukocytes", "setting": "[7]", "result": "reduced oxidative stress"},
      {"measurement": "oxidative stress / superoxide formation in aortic vessels", "setting": "[8]", "result": "reduced oxidative stress"},
      {"measurement": "carotid-radial pulse wave velocity", "setting": "[9]; both glycemic conditions, 8 weeks of 25 mg daily, p≤0.0001", "result": "decreased significantly"},
      {"measurement": "systolic blood pressure", "setting": "[9]; clamped euglycemia, after 8 weeks of 25 mg daily, before treatment 111±9, p=0.0187", "result": "109±9", "unit": "mmHg"},
      {"measurement": "augmentation index, aortic (derived)", "setting": "[9]; clamped euglycemia, after 8 weeks of 25 mg daily, before treatment +0.1±13.4, p<0.0001", "result": "−6.2±14.3", "unit": "%"},
      {"measurement": "augmentation index, carotid", "setting": "[9]; clamped euglycemia, after 8 weeks of 25 mg daily, before treatment +1.3±17.0, p<0.0001", "result": "−5.7±17.0", "unit": "%"},
      {"measurement": "augmentation index, radial", "setting": "[9]; clamped euglycemia, after 8 weeks of 25 mg daily, before treatment −52±16, p<0.0001", "result": "−57±17", "unit": "%"},
      {"measurement": "blood pressure effects", "setting": "[9]; clamped hyperglycemia, 8 weeks of 25 mg daily", "result": "not significant"},
      {"measurement": "carotid-femoral pulse wave velocity", "setting": "[9]; clamped hyperglycemia, after 8 weeks of 25 mg daily, before treatment 5.7±1.1, p=0.0017", "result": "5.2±0.9", "unit": "m/s"},
      {"measurement": "arterial stiffness (overall conclusion)", "setting": "[9]; patients with uncomplicated T1D, 8 weeks of 25 mg daily", "result": "reduces arterial stiffness"}
    ]}
  ]
}
